The test system of this test is luciferase reporter construct containing a UGA premature termination codon. Put plainly: cell-based luciferase reporter assay (nonsense suppression / readthrough). Details: key: *****: both extremely high potency and extremely high efficacy of protein synthesis; ****: extremely high potency of protein synthesis and very high efficacy; ****: very high potency of protein synthesis and extremely high efficacy; ***: both very high potency and very high efficacy of protein synthesis; **: very high potency of protein synthesis and significant efficacy; **: significant potency of protein synthesis and very high efficacy; *: significant potency and efficacy of protein synthesis. The note with it: ranking combining potency and efficacy of protein synthesis; UGA luciferase reporter stably transfected in 293T Human Embryonic Kidney cells. The procedure:
Activity measurements in Table I were performed in a cell-based luciferase reporter assay (as described in Section 4.2) comprising a luciferase reporter construct containing a UGA premature termination codon that was stably transfected in 293T Human Embryonic Kidney cells. A small molecule (3-[3-(4-Isopropyl-phenyl)-2,5-dioxoimidazolidin-1-yl]-benzoic acid) known to allow readthrough of premature termination codons, was used as an internal standard. Activity measurements are based on the qualitative relation between the minimum concentration of compound required to produce a given protein in a cell (potency) and the maximum amount of protein produced by the cell (efficacy). Potency and efficacy activities are ranked as either extremely high, very high or significant.
The test compounds identified in the nonsense suppression assay (for convenience referred to herein as a “lead” compound) can be tested for biological activity using host cells containing or engineered to contain the target RNA element coupled to a functional readout system. For example, the lead compound can be tested in a host cell engineered to contain the RNA with the premature translation termination codon controlling the expression of a reporter gene. In this example, the lead compounds are assayed in the presence or absence of the RNA with the premature translation termination codon. Compounds that modulate premature translation termination and/or nonsense-mediated mRNA decay in vivo will result in increased expression of the full-length gene, i.e., past the premature termination codon. Alternatively, a phenotypic or physiological readout can be used to assess activity of the target RNA with the premature translation termination codon in the presence and absence of the lead compound. Both the in vitro and in vivo nonsense suppression assays used herein and as described in International Patent Publication WO 01/44516, which is incorporated by reference in its entirety, can be used to identify lead compounds can also be used to determine an EC50 for the lead compounds.
A stable cell line harboring the […] nonsense-containing luciferase gene is treated with a test compound. Cells are grown in standard medium supplemented with 1% penicillin-streptomycin (P/S) and 10% fetal bovine serum (FBS) to 70% confluency and split 1:1 the day before treatment. The next day, cells are trypsinized and 40,000 cells are added to each well of a 96-well tissue culture dish. Serial dilutions of each compound are prepared to generate a six-point dose response curve spanning 2 logs ([…]). The final concentration of the DMSO solvent remains constant at 1% in each well. Cells treated with 1% DMSO serve as the background standard, and cells treated with gentamicin serve as a positive control.
Background: Reporter assays use an easily measured gene product as a stand-in for the process of interest.

As to `O=C(O)c1cccc(N2CCN(c3ccc(F)nc3)C2=O)c1` [Compound 79, 3-[3-(6-Fluoro-pyridin-3-yl)-2-oxo-imidazolidin-1-yl]-benzoic acid], the Activity result is on record as “*”.

For `O=C(O)c1cccc(N2CCN(c3cccc(F)c3)C2=O)c1` [Compound 69, 3-[3-(3-Fluoro-phenyl)-2-oxo-imidazolidin-1-yl]-benzoic acid], the Activity result was “*****”.

Regarding `CC1(C)CN(c2ccc(OC(F)(F)F)cc2)C(=O)N1c1cccc(C(=O)O)c1` [Compound 62, 3-[5,5-Dimethyl-2-oxo-3-(4-trifluoromethoxy-phenyl)-imidazolidin-1-yl]-benzoic acid], the Activity result is “*”.

On to `O=C(O)c1cccc(N2C(=O)CN(c3ccc(Br)cc3)C2=O)c1` [Compound 29, 3-[3-(4-Bromo-phenyl)-2,5-dioxo-imidazolidin-1-yl]-benzoic acid], for which the Activity entry is given as “*”.

Regarding `CC(C)c1ccc(NC(=O)Nc2cccc(C(=O)O)c2)cc1` [Compound 8, 3-[3-(4-isopropyl-phenyl)-ureido]-benzoic acid], the Activity entry is listed as “***”.

For `CN1CCN(c2ccc(N3CCN(c4cccc(C(=O)O)c4)C3=O)cc2)CC1` [Compound 76, 3-{3-[4-(4-Methyl-piperazin-1-yl)-phenyl]-2-oxo-imidazolidin-1-yl}-benzoic acid], the Activity result is recorded as “*”.

With `O=C(O)c1cccc(N2CCN(c3ccc(N4CCCC4)cc3)C2=O)c1` [Compound 44, 3-[2-Oxo-3-(4-pyrrolidin-1-yl-phenyl)-imidazolidin-1-yl]-benzoic acid], the Activity result was “****”.

`CC(C)c1ccc(N2CCN(c3cccc(C(=O)O)c3)C2=S)cc1` [Compound 60, 3-[3-(4-Isopropyl-phenyl)-2-thioxo-imidazolidin-1-yl]-benzoic acid]: the Activity result was “****”.

Turning to `O=C(O)c1cc(N2CCN(c3ccc(C(F)(F)F)cc3)C2=O)ccc1Cl` [Compound 54, 2-Chloro-5-[2-oxo-3-(4-trifluoromethyl-phenyl)-imidazolidin-1-yl]-benzoic acid], the Activity result is given as “****”.

In the case of `O=C(O)c1cccc(N2CCN(c3ccc(N4CCN(c5ccccc5)CC4)cc3)C2=O)c1` [Compound 56, 3-{2-Oxo-3-[4-(4-phenyl-piperazin-1-yl)-phenyl]-imidazolidin-1-yl}-benzoic acid], the Activity entry is reported as “*”.

Take `CC(C)c1cccc(N2CCN(c3cccc(C(=O)O)c3)C2=O)c1` [Compound 36, 3-[3-(3-Isopropyl-phenyl)-2-oxo-imidazolidin-1-yl]-benzoic acid]: the Activity result is “****”.

Regarding `O=C(O)c1cccc(N2CCN(c3ccc(C(F)(F)F)cc3)C2=O)c1F` [Compound 58, 2-Fluoro-3-[2-oxo-3-(4-trifluoromethyl-phenyl)-imidazolidin-1-yl]-benzoic acid], the Activity entry is reported as “**”.

For `O=C(O)c1cccc(N2C(=O)CN(Cc3ccccc3Cl)C2=O)c1` [Compound 5, 3-[3-(2-chloro-benzyl)-2,5-dioxo-imidazolidin-1-yl]-benzoic acid], the Activity result is “***”.

Consider `CCOC(=O)c1ccc(N2C(=O)CN(c3cccc(C(=O)O)c3)C2=O)cc1` [Compound 17, 3-[3-(4-formyl-ethylester-phenyl)-2,4-dioxo-imidazolidin-1-yl]-benzoic acid], for which the Activity result is on record as “*”.

As for `O=C(NCc1ccc(Br)cc1)Nc1cccc(C(=O)O)c1` [Compound 20, 3-[3-(4-bromo-benzyl)-ureido]-benzoic acid], the Activity result is recorded as “*”.

Regarding `CCOc1ccc(N2CC(=O)N(c3cccc(C(=O)O)c3)C2=O)cc1` [Compound 27, 3-[3-(4-Ethoxy-phenyl)-2,5-dioxo-imidazolin-1-yl]-benzoic acid], the Activity result is given as “*”.

As for `COc1cccc(N2C(=O)CN(c3cccc(C(=O)O)c3)C2=O)c1` [Compound 11, 3-[3-(3-methoxy-phenyl)-2,4-dioxo-imidazolidin-1-yl]-benzoic acid], the Activity entry is given as “*”.

In the case of `CC(C)c1ccc(-n2ccn(-c3cccc(C(=O)O)c3)c2=S)cc1` [Compound 37, 3-[3-(4-Isopropyl-phenyl)-2-thioxo-2,3-dihydro-imidazol-1-yl]-benzoic acid], the Activity result is on record as “*”.

As for `O=C(O)c1cccc(N2CCN(c3ccc4c(c3)OC(F)(F)O4)C2=O)c1` [Compound 50, 3-[3-(2,2-Difluoro-benzo[1,3]dioxol-5-yl)-2-oxo-imidazolidin-1-yl]-benzoic acid], the Activity entry is listed as “****”.

For the compound `O=C(O)c1cccc(N2C(=O)CN(c3cccc(Br)c3)C2=O)c1` [Compound 18, 3-[3-(3-bromo-phenyl)-2,5-dioxo-imidazolidin-1-yl]-benzoic acid], the Activity result is recorded as “*”.

For `O=C(O)c1cc(N2CCN(c3ccc(C(F)(F)F)cc3)C2=O)ccc1F` [Compound 53, 2-Fluoro-5-[2-oxo-3-(4-trifluoromethyl-phenyl)-imidazolidin-1-yl]-benzoic acid], the Activity result is given as “****”.

With `CC(C)c1ccc(N2CCN(c3cccc(C(=O)O)c3)C2=O)cc1` [Compound 34, 3-[3-(4-Isopropyl-phenyl)-2-oxo-imidazolidin-1-yl]-benzoic acid], the Activity entry is “*****”.

Regarding `O=C(O)c1cccc(N2C(=O)CN(c3ccc(OC(F)(F)F)cc3)C2=O)c1` [Compound 30, 3-[2,5-Dioxo-3-(4-trifluoromethoxy-phenyl)-imidazolidin-1-yl]-benzoic acid], the Activity result is reported as “*”.

Turning to `O=C(O)c1cccc(N2CCN(c3ccc4c(c3)OCO4)C2=O)c1` [Compound 41, 3-(3-Benzo[1,3]dioxol-5-yl-2-oxo-imidazolidin-1-yl)-benzoic acid], the Activity entry is “*****”.

Regarding `CN(C)c1ccc(N2CCN(c3cccc(C(=O)O)c3)C2=O)cc1` [Compound 47, 3-[3-(4-Dimethylamino-phenyl)-2-oxo-imidazolidin-1-yl]-benzoic acid], the Activity entry is recorded as “*****”.

Take `O=C(O)c1cccc(N2CCN(c3ccsc3)C2=O)c1` [Compound 74, 3-(2-Oxo-3-thiophen-3-yl-imidazolidin-1-yl)-benzoic acid]: the Activity result is listed as “****”.

With `COc1ccc(N2CCN(c3cccc(C(=O)O)c3)C2=O)cc1` [Compound 49, 3-[3-(4-Methoxy-phenyl)-2-oxo-imidazolidin-1-yl]-benzoic acid], the Activity entry is on record as “****”.

Turning to `CC(C)(C)c1ccc(NC(=O)Nc2cccc(C(=O)O)c2)cc1` [Compound 33, 3-[3-(4-tert-Butylphenyl)-ureido]-benzoic acid], the Activity result is given as “**”.

For the compound `O=C(O)c1cccc(N2CCN(c3ccc(I)cc3)C2=O)c1` [Compound 43, 3-[3-(4-Iodo-phenyl)-2-oxo-imidazolidin-1-yl]-benzoic acid], the Activity result was “*****”.

Consider `O=C(O)c1cccc(N2CCN(c3ccc(OCC(=O)N4CCOCC4)cc3)C2=O)c1` [Compound 77, 3-{3-[4-(2-Morpholin-4-yl-2-oxo-ethoxy)-phenyl]-2-oxo-imidazolidin-1-yl}-benzoic acid], for which the Activity entry is “*”.

Consider `O=C(O)c1cccc(N2CCN(c3ccc(C(F)(F)F)cn3)C2=O)c1` [Compound 72, 3-[2-Oxo-3-(5-trifluoromethyl-pyridin-2-yl)-imidazolidin-1-yl]-benzoic acid], for which the Activity entry was “****”.

`O=C(O)c1cccc(N2C(=O)CN(CC3CCCO3)C2=O)c1` (stereo not drawn) [Compound 13, 3-[2,5-dioxo-3-(tetrahydro-furan-2-ylmeethyl)-imidazolidin-1-yl]-benzoic acid]: the Activity result was “*”.

Take `O=C(NCc1ccc(Cl)cc1Cl)Nc1cccc(C(=O)O)c1` [Compound 21, 3-[3-(2,4-dichloro-benzyl)-ureido]-benzoic acid]: the Activity entry is listed as “*”.

Turning to `O=C(O)c1cccc(N2CCN(c3ccc4c(c3)OCCO4)C2=O)c1` [Compound 42, 3-[3-(2,3-Dihydro-benzo[1,4]dioxin-6-yl)-2-oxo-imidazolidin-1-yl]-benzoic acid], the Activity result is recorded as “*****”.

With `O=C(O)c1cccc(N2CCN(c3ccc(F)c(C(F)(F)F)c3)C2=O)c1` [Compound 63, 3-[3-(4-Fluoro-3-trifluoromethyl-phenyl)-2-oxo-imidazolidin-1-yl]-benzoic acid], the Activity result is recorded as “****”.

`O=C(O)c1cccc(N2C(=O)CN(CC3CCCCC3)C2=O)c1` [Compound 6, 3-(3-cyclohexylmethyl-2,5-dioxo-imidazolidin-1-yl)-benzoic acid]: the Activity entry is recorded as “*”.

Source of the values: patent publication US8334313B2, “Ureido substituted benzoic acid compounds and their use for nonsense suppression and the treatment of disease” (PTC Therapeutics, Inc., priority 2002, dated 2012).
